The subject of data set [1] is PDE IV isozymes separated from U937 culture cells. Description: PDE IV inhibition ([3H]-cAMP hydrolysis). The data set is classed as biochemical. The settings on record: cAMP 1 μM as substrate, 30° C., 20 minutes, Probit method. As to the method: PDE IV isozymes as used herein were separated from U937 culture cells by using an anion exchange chromatography. Type IV PDE isozyme was admixed with ethylene glycol (EG) to adjust the final EG concentration to 30%, then stored at −20° C. and diluted when used. The enzymatic activity for PDE IV was measured using cAMP as a substrate.
Each test compound was dissolved in DMSO to adjust the final concentration to 1% (2.5 μl/tube). Incubation buffer solution (pH7.5): • Tris-HCl (50 mM), magnesium chloride (6 mM), dithiothreitol (2.5 mM), 5-nucleotidase (4 μg/ml), bovine serum albumin (0.23 mg/ml), and cAMP (1 μM).
A mixture of the aforementioned test compound solution and the buffer solution was incubated at 30° C. for 20 minutes. The reaction was quenched by admixing with 1 ml of anion exchange resin slurry (AG1-X8, 200–400 meshes, chloride form; Bio-Rad) to absorb unreacted substrates. After the reaction stopped, the mixture was centrifuged at 800×g for 10 minutes, and the resulting supernatant was collected with vials in 250 μl aliquots. To each vial was added 5 ml of ACS-II (scintillator, Amersham). The radioactivity was measured with a liquid scintillator counter for [^3H]-adenosine and set as the PDE IV activity.

Data set [2] concerns actively sensitized guinea pigs. The experiment in a line: Inhibition of antigen-induced immediate asthmatic response (airway resistance, Konzett-Rossler method). The data set is classed as in vivo, Male Hartley outbred guinea pigs. The conditions noted are these: orally, 60 minutes prior to antigen-challenge, ovalbumin-sensitized guinea pigs, Probit method; for ED50: Cavia porcellus. Here is the method:
Male Hartley outbred guinea pigs were sensitized by administering intraperitoneally physiological saline (0.5 ml) containing ovalbumin (1 mg, antigen) and 5×10^9 inactivated Bordetella pertussis dead cells (adjuvant). Eleven to thirteen days after the first sensitization, 0.05 ml of an ovalbumin solution (1 mg/ml) (ovalbumin is dissolved in physiological saline) was administered to the lateroabdominal region of each guinea pig intracutaneously. An establishment of sensitization was checked relying on cutaneous reaction. Only guinea pigs wherein significant reddening responses occurred 5 to 10 minutes later were employed in the next measurement test for airway resistance.
The guinea pigs (3 animals per group) actively sensitized in the above step (1) were employed to measure for their airway pressure according to Konzett-Rossler method (Arch. Exp. Path. Pharmakol., 195, 71 (1940)).
Thirteen days after the final sensitization, guinea pigs fasted overnight, and were on the next day anesthetized with a pentobarbital solution (30 mg/1.2 ml/kg, dissolved in physiological saline, intraperitoneal administration). After the guinea pigs were fixed in a supine position, their trachea was incised followed by insertion with one port of a 4-port cannula. Among the remaining 3 ports, 2 ports were connected to an artificial respirator (Model 683, Harvard). The animals were ventilated with 10 ml/kg of air per ventilation at a rate of 60 beats/min via the artificial respirator from the cannula. One port remainder was connected to a respiratory amplifier (AR-601G, Nihon Kohden, Japan) via an airflow resistance tube (TV-241T, Nihon Kohden, Japan) and a differential pressure transducer (TP-602T, Nihon Kohden, Japan) connected with a control box (RY-111S, Nihon Kohden, Japan). From a catheter inserted into a left carotid artery, blood pressures were monitored with a blood pressure measurement unit (AP641G, NEC Corp., Japan) via a blood pressure transducer (TP-300T, Nihon Kohden, Japan), and heart rates were recorded on a thermal recorder (WT-685G, Nihon Kohden, Japan), relying on blood pressure pulse waves after being led to a cardiograph unit (AT601G, Nihon Kohden, Japan).
After airway pressure became stable, an ovalbumin solution. (1 mg/ml, dissolved in physiological saline) was administered at a dose of 1 ml/kg via a tube with which the right jugular vein of guinea pigs was cannulated.
Each test compound was suspended in 0.5% CMC—Na solution and administered orally with an oral sound at a dose of 0.03 to 20 mg/2 ml/kg 60 minutes prior to the antigen-challenge. Control groups received only 0.5% CMC—Na solution in an equivalent amount. The pentobarbital-anesthetization and tracheal incision were conducted 30 minutes prior to the antigen-challenge.
Each percent reduction of increase in airway resistance (each test compound-administered group versus control group) was calculated according to the equation given below. ED50 was obtained by Probit method.

The subject of another data set is ICR mice. The experiment in a line: Toxicology study. The data set is classed as in vivo. The conditions noted are these: oral 300 mg/10 ml/kg. Here is the method:
Each Compound (Example Nos. 7 and 8) was administered orally to ICR mice (7 animals per group) as a test compound. […] Each test compound was suspended in 0.5% CMC—Na solution and given orally to the animal at a dose of 300 mg/10 ml/kg.

The subject of the next data set is Male Marshall ferrets. Description: Emetic action. Format: in vivo. The conditions noted are these: oral, observed within 12 hours, dose = ED50 of Assay Example 2. As to the method: Male Marshall ferrets (each group consisting of 3 animals) as used herein fasted overnight. On the next day, a suspension of each test compound in 0.5% CMC—Na solution was administered orally to the animals. […] Next, each maximum tolerance dose against emesis was obtained. SB207499 was used for the reference compound in this assay.

One may read the IC50 as the midpoint of a concentration-inhibition curve. A high value points to weaker potency. Broadly, the melting point is the temperature, or range, at which the solid turns liquid. Broadly, the ED50 is the dose at which the effect has come halfway, by size or by number of responders. Regarding `CC(CCc1cc2cccnc2n(-c2cccc([N+](=O)[O-])c2)c1=O)c1ccncc1` (stereo not shown) [Example No. 11, 1-(3-Nitrophenyl)-3-[3-methyl-3-(pyridin-4-yl)propyl]-1,8-naphthyridin-2(1H)-one], the melting point is 154 to 155 °C. Moreover, in data set [1], the IC50 turned out to be 0.07 µM. Further, the median effective dose (ED50) in data set [2] was found to be 0.12 mg/kg. The molecule `O=c1c(CCCc2ccncc2)cc2cccnc2n1-c1ccc2nonc2c1` [Example 27, 1-(2,1,3-Benzoxadiazol-5-yl)-3-[3-(pyridin-4-yl)propyl]-1,8-naphthyridin-2(1H)-one] had a melting point of 192 to 194 °C. On the same count and under the same terms, under `O=c1c(CCCc2cccnc2)cc2cccnc2n1-c1ccc2nsnc2c1` [Example 2, 1-(2,1,3-Benzothiadiazol-5-yl)-3-[3-(pyridin-3-yl)propyl]-1,8-naphthyridin-2(1H)-one] stands 173.5 to 174.5 °C; under `O=c1c(CCC(O)c2ccncc2)cc2cccnc2n1-c1cccc([N+](=O)[O-])c1` (stereo not shown) [Example 20, 1-(3-nitrophenyl)-3-[3-hydroxy-3-(pyridin-4-yl)propyl]-1,8-naphthyridin-2(1H)-one], 235 to 236 °C.

`O=c1c(CCCc2ccncc2)cc2cccnc2n1-c1ccc(Cl)c([N+](=O)[O-])c1` [Example 25, 1-(4-Chloro-3-nitrophenyl)-3-[3-(pyridin-4-yl)propyl]-1,8-naphthyridin-2(1H)-one] displayed a melting point of 136 to 137 °C. For the molecule `Nc1cccc(-n2c(=O)c(CCCc3cc[n+]([O-])cc3)cc3cccnc32)c1` [Example No. 8, 1-(3-Aminophenyl)-3-[3-(1-oxypyridin-4-yl)propyl]-1,8-naphthyridin-2(1H)-one], in the data set with ICR mice, the Body weight gain entry was “No reduction of body weight gains was observed”, the Mortality entry is given as “None of the animals were died” and the “Other parameters (general health conditions)” value is recorded as “no abnormality was observed”. Also, the IC50 in data set [1] amounted to 0.067 µM. Moreover, the median effective dose (ED50) in data set [2] is 1.2 mg/kg. Further, the “Emetic actions at asthmatic response-inhibitory ED50 level” value in the data set with Male Marshall ferrets is reported as “no observation for emetic actions”.

Molecule `O=C(CCc1cc2cccnc2n(-c2cccc([N+](=O)[O-])c2)c1=O)c1ccncc1` [Example No. 17, 1-(3-Nitrophenyl)-3-[3-oxy-3-(pyridin-4-yl)propyl]-1,8-naphthyridin-2(1H)-one] had an IC50 in data set [1] of 0.45 µM. Besides, the ED50 in data set [2] turned out to be 0.71 mg/kg. The molecule `CC(=O)Nc1cccc(-n2c(=O)c(CCCc3ccncc3)cc3cccnc32)c1` [Example 10, 1-(3-Acetylaminophenyl)-3-[3-(pyridin-4-yl)propyl]-1,8-naphthyridin-2(1H)-one] had a melting point of 200 to 202 °C. The same measure, in the same setting: under `O=c1c(CCCc2ccccn2)cc2cccnc2n1-c1ccc2nsnc2c1` [Example 3, 1-(2,1,3-Benzothiadiazol-5-yl)-3-[3-(pyridin-2-yl)propyl]-1,8-naphthyridin-2(1H)-one] stands 169.5 to 170.5 °C. In turn, `O=c1c(CCCc2cnccn2)cc2cccnc2n1-c1cccc([N+](=O)[O-])c1` [Example 6, 1-(3-Nitrophenyl)-3-[3-(pyrazin-2-yl)propyl]-1,8-naphthyridin-2(1H)-one] displayed a melting point of 194 to 195 °C.

On to `CN(C)c1cccc(-n2c(=O)c(CCCc3ccncc3)cc3cccnc32)c1` [Example 9, 1-(3-Dimethylaminophenyl)-3-[3-(pyridin-4-yl)propyl]-1,8-naphthyridin-2(1H)-one], for which the melting point lay within 124 to 127 °C. Consider `COc1ccc(C2CNC(=O)C2)cc1OC1CCCC1` (stereo not shown) [Rolipram, reference compound], for which the ED50 in data set [2] came out at 0.51 mg/kg. The molecule `Nc1cccc(-n2c(=O)c(CCC(O)c3ccncc3)cc3cccnc32)c1` (stereo not shown) [Example 23, 1-(3-Aminophenyl)-3-[3-hydroxy-3-(pyridin-4-yl)propyl]-1,8-naphthyridin-2(1H)-one] gave a melting point of 209 to 211 °C. Turning to `O=c1c(CCCc2cccnn2)cc2cccnc2n1-c1cccc([N+](=O)[O-])c1` [Example 5, 1-(3-Nitrophenyl)-3-[3-(pyridazin-3-yl)propyl]-1,8-naphthyridin-2(1H)-one], the melting point lay within 234 to 235 °C. Still for that read-out and setting: under `CC(=O)OC(CCc1cc2cccnc2n(-c2cccc([N+](=O)[O-])c2)c1=O)c1ccncc1` (stereo not shown) [Example 22, 1-(3-Nitrophenyl)-3-[3-acetyloxy-3-(pyridin-4-yl)propyl]-1,8-naphthyridin-2(1H)-one] stands 69 to 71 °C. On the same count and under the same terms, for `CC(CCc1cc2cccnc2n(-c2cccc(N(C)C)c2)c1=O)c1ccncc1` (stereo not shown) [Example 15, 1-(3-Dimethylaminophenyl)-3-[3-methyl-3-(pyridin-4-yl)propyl]-1,8-naphthyridin-2(1H)-one] the value was 148 to 154 °C. On to `Nc1cccc(-n2c(=O)c(CCC(=O)c3cc[n+]([O-])cc3)cc3cccnc32)c1` [Example No. 19, 1-(3-Aminophenyl)-3-[3-oxo-3-(1-oxypyridin-4-yl)propyl]-1,8-naphthyridin-2(1H)-one], for which, in data set [2], the “Inhibition of Asthmatic response ED50” value was 0.38 mg/kg. As for `CC(CCc1cc2cccnc2n(-c2cccc(N)c2)c1=O)c1ccncc1` (stereo not shown) [Example 13, 1-(3-Aminophenyl)-3-[3-methyl-3-(pyridin-4-yl)propyl]-1,8-naphthyridin-2(1H)-one], the melting point is 83 to 91 °C.

Take `O=c1c(CCCc2ccncc2)cc2cccnc2n1-c1cccc2nsnc12` [Example 24, 1-(2,1,3-Benzothiadiazol-4-yl)-3-[3-(pyridin-4-yl)propyl]-1,8-naphthyridin-2(1H)-one]: the melting point lay in the range of 191 to 192 °C.

The molecule `CC(CCc1cc2cccnc2n(-c2cccc([N+](=O)[O-])c2)c1=O)c1cc[n+]([O-])cc1` (stereo not shown) [Example No. 12, 1-(3-nitrophenyl)-3-[3-methyl-3-(1-oxypyridin-4-yl)propyl]-1,8-naphthyridin-2(1H)-one] yielded a melting point of 182.5 to 196.5 °C. This molecule also had a 50% inhibitory concentration (IC50) in data set [1] of 0.13 µM. For the same molecule, in data set [2], the ED50 turned out to be 0.21 mg/kg. For `O=c1c(CCCc2cncnc2)cc2cccnc2n1-c1cccc([N+](=O)[O-])c1` [Example 4, 1-(3-Nitrophenyl)-3-[3-(pyrimidin-5-yl)propyl]-1,8-naphthyridin-2(1H)-one], the melting point was in the range of 175 to 175.5 °C.

Source of the values: patent US7115623B2, “PDE IV inhibitors” (Aska Pharmaceuticals Co., Ltd., priority 2001, dated 2006).
